Test results reported in patent publication US7056907B2, “Mandelic acid derivatives and their use as thrombin inhibitors” (AstraZeneca AB, priority 2001, dated 2006).

Legend:
[1] = system: pooled normal human citrated plasma; experiment: Test D: Determination of Activated Partial Thromboplastin Time (APTT); format: biochemical; settings: read-out: IC50 APTT (concentration of inhibitor in human plasma that doubles the Activated Partial Thromboplastin Time)
Procedure: Determination of Activated Partial Thromboplastin Time (APTT)
APTT is determined in pooled normal human citrated plasma with the reagent PTT Automated 5 manufactured by Stago. The inhibitors are added to the plasma (10 μL inhibitor solution to 90 μL plasma) and incubated with the APTT reagent for 3 minutes followed by the addition of 100 μL of calcium chloride solution (0.025 M) and APTT is determined by use of the coagulation analyser KC10 (Amelung) according to the instructions of the reagent producer.
(§1) The clotting time is expressed as absolute values (seconds) as well as the ratio of APTT without inhibitor (APTT0) to APTT with inhibitor (APTTi). The latter ratios (range 1–0) are plotted against the concentration of inhibitor (log transformed) and fitted to sigmoidal dose-response curves according to the equation y=a/[1+(x/IC50)^s] where: a=maximum range, i.e. 1; s=slope of the dose-response curve; and IC50=the concentration of inhibitor that doubles the clotting time. The calculations are processed on a PC using the software program GraFit Version 3, setting equation equal to: Start at 0, define end=1 (Erithacus Software, Robin Leatherbarrow, Imperial College of Science, London, UK). IC50APTT is defined as the concentration of inhibitor in human plasma that doubles the Activated Partial Thromboplastin Time. Test E Determination of Thrombin Time ex vivo

[2] = Test G: Determination of in vitro Stability, human liver microsomes; format: in vitro ADME; settings: liver microsomes from humans, 37° C., up to 60 min
Procedure: (§2) Plasma clearance is estimated in male Sprague Dawley rats. The compound is dissolved in water and administered as a subcutaneous bolus injection at a dose of 4 μmol/kg. Blood samples are collected at frequent intervals up to 5 hours after drug administration. Blood samples are centrifuged and plasma is separated from the blood cells and transferred to vials containing citrate (10% final concentration). 50 μL of plasma samples are precipitated with 100 μL of cold acetonitrile. The samples are centrifuged for 10 minutes at 4000 rpm. 75 μL of the supernatant is diluted with 75 μL of 0.2% formic acid. 10 μL volumes of the resulting solutions are analysed by LC-MS/MS and the concentrations of thrombin inhibitor are determined using standard curves. The area under the plasma concentration-time profile is estimated using the log/linear trapezoidal rule and extrapolated to infinite time. Plasma clearance (CL) of the compound is then determined as CL=Dose/AUC The values are reported in mL/min/kg. Test G Determination of in vitro Stability
(§3) Liver microsomes are prepared from Sprague-Dawley rats and human liver samples according to internal SOPs. […] The concentration of compound remaining (FINAL CONC) in the 60 min. sample is determined by means of LCMS using a sample collected at zero time as reference (START CONC). The % of degraded thrombin inhibitor is calculated as: […]

[3] = Test E: Determination of Thrombin Time ex vivo (plasma concentration of thrombin inhibitor after oral or parenteral administration); format: in vivo, rat; settings: conscious rats, plasma analysed by LC-MS/MS
From the text: as §1
The inhibition of thrombin after oral or parenteral administration of the compounds of the invention, dissolved in ethanol:SolutolK:water (5:5:90), is examined in conscious rats which, one or two days prior to the experiment, are equipped with a catheter for blood sampling from the carotid artery. […]
50 μL of plasma samples are precipitated with 100 μL of cold acetonitrile. […] 10 μL volumes of the resulting solutions are analysed by LC-MS/MS and the concentrations of thrombin inhibitor are determined using standard curves.

[4] = Test G: Determination of in vitro Stability, rat liver microsomes; format: in vitro ADME, Sprague-Dawley rats; settings: liver microsomes from rats, 37° C., up to 60 min
Procedure: as §2, §3

Work on `N=C(N)c1cc(F)c(CNC(=O)[C@@H]2CCN2C(=O)[C@H](O)c2cc(Cl)cc(OC(F)F)c2)c(F)c1` [Example 1, Ph(3-Cl)(5-OCHF2)—(R)CH(OH)C(O)—(S)Aze-Pab(2,6-diF)] yielded an IC50 [1] of under 1 µM.

For `CO/N=C(\N)c1cc(F)c(CNC(=O)[C@@H]2CCN2C(=O)[C@H](O)c2cc(Cl)cc(OC(F)F)c2)c(F)c1` [Example 2, Ph(3-Cl)(5-OCHF2)—(R)CH(OH)C(O)—(S)Aze-Pab(2,6-diF)(OMe)], the “conversion to the corresponding active inhibitor (free amidine) in liver microsomes” value [2] was “converted to the corresponding active inhibitor (free amidine)”, the “oral and/or parenteral bioavailability as the corresponding active inhibitor (free amidine)” value [3] was “exhibit oral and/or parenteral bioavailability in the rat as the corresponding active inhibitor (free amidine)” and the “conversion to the corresponding active inhibitor (free amidine) in liver microsomes” value [4] was “converted to the corresponding active inhibitor (free amidine)”.
